Assay results as given in PMC12416277, “Phytochemical alkaloids orchestrate immunometabolism against viral infections” (National Science Review, 2025).

Columns and labels:
H1N1 [1] = test: Dose-response of infectivity, H1N1 in A549 cells (viral mRNA by qRT-PCR); assay type: cell-based; settings: Influenza A virus; A549 cells, H1N1; read-out: EC50
H1N1 [2] = test: Dose-response of infectivity, H1N1 in L929 cells; assay type: cell-based; settings: Influenza A virus
H1N1 [3] = test: H1N1 NP protein in A549 cells (confocal microscopy, immunoblotting); assay type: cell-based, influenza virus A (H1N1)
Protocol: Cells were lysed in lysis buffer and the protein concentrations were determined using the BCA Protein Assay Kit. Subsequently, the protein samples were separated by SDS-PAGE electrophoresis and transferred to nitrocellulose (NC) membranes, and blocked in 5% skim milk for 1 h at room temperature. Following an overnight incubation at 4°C with specific primary antibodies, the membranes were exposed to the appropriate HPR-conjugated antibodies and visualized using enhanced chemiluminescence.
Cells were fixed with 4% PFA for 20 min, permeabilized with 0.2% Triton X-100 for 20 min, and blocked in 5% BAS for 1 h. After incubating with primary antibodies at 4℃ overnight, fluorescent secondary antibodies (Alexa-488, Alexa-594, Alexa-647) were added at RT for 1 h. Confocal microscopy analyses were carried out using Olympus FV3000 confocal microscope, and Leica TCS SP8 confocal microscope. […] Cells were then analyzed for Filipin staining signals by microscopy in the DAPI channel. […] Cells were then analyzed for signals by microscopy in the AF647 channel.
Figure S2. […] P values were calculated using one-way ANOVA.

EMCV [4] = assay type: cell-based, encephalomyocarditis virus (EMCV)
EMCV [5] = assay type: cell-based, encephalomyocarditis virus (EMCV); remark: listed apart in the source
[6] = tested on: TBK1, STAT1 and STAT2 phosphorylation; test: Immunoblotting of p-TBK1, p-STAT1, p-STAT2 in THP-1 and MEF cells; assay type: cell-based; settings: THP-1, MEF cells
STING [7] = test: DMXAA-stimulated WT or Sting-/- MEF cells, Ifnb1, Ifi44, Ccl5, Cxcl10 mRNA; assay type: cell-based, mouse
H1N1 [8] = assay type: cell-based, influenza virus A (H1N1)
STING [9] = assay type: cell-based
VSV = assay type: in vivo, C57/BL6J mice; settings: mice

Compound: COc1ccc2cc1Oc1ccc(cc1)C[C@H]1c3cc(c(OC)cc3CCN1C)Oc1c(OC)c(OC)cc3c1[C@H](C2)N(C)CC3 [Tet, tetrandrine]
- EC50 (H1N1 [1]): 330 nM
- EC50 (H1N1 [2]): 541 nM
- H1N1 NP protein expression (H1N1 [3]): effectively reduced
- cytopathic effects (H1N1 [3]): without causing cytopathic effects
- EMCV infection (EMCV [4]): effectively suppressed
- EMCV attachment (EMCV [5]): without affecting virus attachment
- EMCV infection during entry or post-entry stages (EMCV [5]): inhibited
- phosphorylation of TBK1, STAT1 and STAT2 [6]: increased the phosphorylation of TBK1, STAT1 and STAT2 in a time- and dose-dependent manner
- Ifnb1, Ifi44, Ccl5 and Cxcl10 gene expression (STING [7]; DMXAA treated Sting-/- MEF cells): abolished
- Ifnb1, Ifi44, Ccl5 and Cxcl10 gene expression (STING [7]; DMXAA treated WT MEF cells): increased
- antiviral effect against H1N1 (H1N1 [8]): diminished
- time-dependent degradation of STING induced by DMXAA (STING [9]): significantly attenuated
- IL-6 level in serum (VSV; VSV infection): markedly decreased
- TNF-α level in serum (VSV; VSV infection): markedly decreased
- VSV-G protein expression in lungs and spleens (VSV; VSV infection): inhibited
- lung pathology (H&E) (VSV; VSV infection): reduced lung pathology and cellular infiltrations
- reduction of VSV genome copies in liver, lung, and spleen tissues (VSV; intraperitoneal and intragastric, 10–60 mg/kg, 24 hours pre-VSV infection): 0.5–1 log₁₀
